Experimental data taken from patent US6001880A, “Alkylenediamine derivative, anti-ulcer drug, and antibacterial drug” (Shiseido Co., Ltd., priority 1997, dated 1999).

Columns and labels:
[1] = test system: stress ulcer formation in rats; test: WIS: Restraint and Water Immersion Stress-Induced Ulcer Inhibition Test; assay type: in vivo, rat (male Crj:SD or Slc:SD); details: 100 mg/kg oral, 10 minutes before 7 h restraint and water immersion (21° C.)
Method: WIS: Restraint and Water Immersion Stress-Induced Ulcer Inhibition Test
The degree of inhibition of the stress ulcer formation is tested.
Male Crj:SD or Slc:SD rats (6 to 7-week-old) were fasted overnight, but allowed free access to water. Each group has 5 to 8 of these rats. The sample compound was dissolved or suspended in an aqueous solution of 0.3% sodium carboxymethylcellulose or 0.05% Tween 80 and then was orally administered (100 mg/10 ml/kg). To a control group, the vehicle was administered. 10 minutes later, the rats were placed in a stress cage and immersed to the level of xipfoid process in a water bath (21° C.) for 7 hours. At the end of the stress, the rats were sacrificed by inhalation of ether or carbon dioxide. Then, the stomach of each was removed, inflated by injecting 10 ml of 5% formalin neutral buffer solution, and immersed in 1% formalin neutral buffer solution for 30 minutes or more to be fixed. The stomach was incised along the greater curvature and then the length of each erosion in the glandular portion was determined under dissecting microscope. The sum of the length of erosions per stomach was defined as ulcer index (UI).
The effect obtained when 100 mg/kg of the sample compound had been administered was expressed as ulcer formation inhibitory rate (%) as follows:
ulcer formation inhibitory rate (%)=(1-(UI in sample group/UI in control

[2] = test system: isolated gastric fundic gland; test: CAP: Acid Secretion Inhibition Test In Vitro ([14C]-aminopyrine uptake); assay type: cell-based, rabbit (male Japanese White); details: Oryctolagus cuniculus; final concentration 10^-5 M; histamine 10^-5 M stimulation; read-out: CAP: acid secretion inhibitory rate
Method: CAP: Acid Secretion Inhibition Test In Vitro
The acid secretion inhibitory activity in a cell level is studied. It can also be used for studying the mechanism of the effect.
First, an isolated gastric fundic gland sample was prepared. Namely, a male Japanese White rabbit (2.5 to 3 kg) was anesthetized to death with Nembutal™ and then the abdomen was incised. Immediately thereafter, the stomach was removed and, after its pyloric and cardiac antrum were severed, incised along its greater curvature into two sheets. The gastric contents adhering to the mucosal surface was washed out with ice-cooled PBS (-) and then carefully washed therein. The gastric wall was spread on a cork board with its mucosal surface facing up and the feed and mucus thereon were completely removed with sterile gauze. The mucosa was separated therefrom by a spatula and then collected in ice-cooled PBS (-). After being washed twice with PBS (-), the mucosa was minced into 2-3 mm^3 pieces by scissors. These pieces were further washed twice with a nutrient solution. The nutrient solution comprises 132.4 mM of NaCl, 5.4 mM of KCl, 5 mM of Na2 HPO4. 12H2 O, 1 mM of NaH2 PO4.2H2 O, 1.2 mM of MgSO4, 1 mM of CaCl2, 25 mM of HEPES, 2 mg/ml of glucose, and 1 mg/ml of BSA.
Into 70 ml of the nutrient solution containing 1 mg/ml of collagenase, minced mucosal pieces were dispersed and intensely stirred in a conical flask with a stirrer at 37° C. for 40 to 60 minutes. During this period, 100% O2 was sprayed on the nutrient solution surface and the pH was appropriately measured such that it was immediately adjusted to pH 7.4, when the value was therebelow, with a base. The nutrient solution was added to the reaction solution so as to attain the total amount of about 200 ml. After being filtered through a mesh, the suspension was divisionally introduced into 50 ml centrifuge tubes and left for 15 minutes such that gastric fundic gland was deposited. The supernatant was repeatedly removed by an aspirator, dispersed in the nutrient solution, and then left such that the gastric fundic gland was washed three times. At this time, without using a pipette, the suspension was alternately introduced into two centrifuge tubes so as to effect dispersion. The number of cells was counted under microscope and adjusted to 1.6×10^6 cells/ml.
Then, [^14 C]-aminopyrine uptake test was performed. After an Eppendorf tube was weighed, 10 μl (final concentration: 10^-5 M) of histamine dissolved in the above-mentioned nutrient solution, 10 μl (final concentration: […]) of the test compound dissolved in DMSO, and 10 μl (final concentration: 0.05 μCi/ml) of [^14 C]-aminopyrine diluted with the nutrient solution were introduced therein and then 970 μl of the isolated gastric fundic gland suspension prepared above was added thereto. Subsequently, this mixture was shaken at 37° C. for 40 minutes at 125 cycles/minute. After being centrifuged for 30 seconds, 200 μl of its supernatant was collected into a mini-vial, while the rest was removed by an aspirator. The gland pellet was completely dried as the tube with its lid being opened was kept for one night in a drying oven at 80° C. and then the lid was closed and the weight was determined at room temperature. Then 100 μl of 1N KOH was added thereto and the tube with its lid being closed was treated at 60° C. for 1 to 2 hours so as to dissolve the pellet. Then, the contents thereof were transferred to a mini-vial. Into the mini-vial containing the supernatant or gland pellet, 4 ml of Atomlite™ was added and then the radioactivity was measured by a liquid scintillation counter. Here, after the radioactivity of the gland pellet was corrected by using a sample in which 20 mM of NaSCN was added so as to cancel the hydrogen ion concentration gradient, the integration ratio of aminopyrine specifically trapped by the gland pellet was calculated. This experiment was performed in duplicate.
Here, its principle will be briefly explained. […]

[3] = MTT: Cell Damaging and Protecting Effect Test; assay type: cell-based, rabbit (male Japanese White); details: rabbit, gastric corpus mucosa cells, final concentration 10^-4 M, smaller value is better, read-out: MTT: cell damaging rate
Excerpt: MTT: Cell Damaging and Protecting Effect Test
It is confirmed that there is no toxicity in cell level. Those having a toxicity in cell level are inappropriate as an anti-ulcer drug.
A male Japanese White rabbit (2.5 to 3 kg) was anesthetized to death by Nembutal™ and, immediately thereafter, its stomach was removed. The greater curvature of the stomach was incised so as to remove the stomach contents therefrom. After the mucosal surface was washed with HBSS (Hanks' Balanced Salt Solution), the stomach in ice-cooled HBSS was transferred to a laboratory. Then, after the pyloric antrum was removed, the gastric corpus mucosa was separated by a spatula and then minced into 2 to 3 mm^3 pieces in BME (Basal Medium Eagle). Thereafter, these pieces were shaken at 120 to 130 cycles/minute for 15 minutes at 37° C. in BME 60 ml containing 280 U/ml of dispase and 30 to 50 U/ml of collagenase. Here, the concentration of collagenase was appropriately changed for each lot in view of the state of cells. The pieces were washed twice with EBSS (Earle's Balanced Salt Solution) containing 1 mM of EDTA and then shaken in MEM (Minimum Essential Medium) containing 1 mM of EDTA at 37° C. for 5 minutes. Subsequently, they were shaken in the dispase and collagenase having the same concentrations as those mentioned above for 15 minutes so as to remove the supernatant and then further shaken at 37° C. for 50 to 60 minutes at 120 to 130 cycles/minute. Then, after being washed twice with HBSS, Ham F12 containing 2% of Ultrocer G™ was used to attain the concentration of 1×10^6 cells/ml. Thus formed suspension was dispensed in each well of a 96-well plate by 200 μl. The plate was incubated in the atmosphere composed of 5% CO2 and 95% air at 37° C. for three days so as to attain a confluent state and then subjected to MTT assay.
The sample compound was dissolved in DMSO so as to attain a concentration of 10^-2 M and then diluted with HBSS containing 2% of Ultrocer G™ so as to attain a final concentration of 10^-4 M. To each group, which 8 wells were used for, 10 μl of MTT reagent was added immediately after 100 μl of the medium in each well was exchanged for same volume of the resulting solution of the sample compound. After being incubated in an atmosphere composed of 5% CO2 and 95% air at 37° C. for 4 hours, thus formed solution was centrifuged and then its supernatant was discarded. Subsequently, 100 μl of 100% ethanol was added to the residue so as to dissolve MTT formazan. Then, the absorbance (OD: 570 to 630) was measured by a microplate reader. This method utilizes a phenomenon in which MTT is changed to MTT formazan only by mitochondria of living cells so as to change color.
The cell damaging or cell protecting effect of the sample compound at the final concentration of 10^-4 M was expressed as cell damaging rate (%) as follows:
cell damaging rate (%)=(1-(absorbance in sample group/absorbance in control
Accordingly, the smaller value is better in the cell damaging rate.

SMILES | WIS: ulcer formation inhibitory rate [1] [%] | inhibition at 10 µM [2] [%] | cytotoxicity at 4 h, 100 µM [3] [%]
CCN(CC)CCNC(=O)c1cc(OC)c(OCC=C(C)C)c(OC)c1 [Example 36] | 88 |  | 
CCCCN(C)CCNC(=O)c1ccc(OC/C=C(\C)CCC=C(C)C)cc1 [Example 11] | 45 | 100 | 
CCN(CC)CCNC(=O)c1cccnc1OCC=C(C)C [Example 47] | 80 |  | 
CC(C)N(CCNC(=O)c1ccc(N(C)C)cc1)C(C)C [Example 70] | 66 | 101 | 
CC(C)=CCC/C(C)=C/COc1ccc(C(=O)NCCN(C)C)cn1 [Example 49] | 38 |  | 
CCN(CC)CCNC(=O)c1ccc(OC/C=C(\C)CCC=C(C)C)cc1 [Example 4] | 83 |  | 
CCN(CC)CCNC(=O)c1ncccc1OCC=C(C)C [Example 54] | 78 |  | -10
CC(C)N(CCNC(=O)c1ccc(C(=O)NC(C)(C)C)cc1)C(C)C [Example 67] | 77 |  | -35
CC(C)N(CCNC(=O)c1ccc(C(C)(C)C)cc1)C(C)C [Example 61] | 94 | 97.3 | 
CC(C)COc1ccc(C(=O)NCCN(C(C)C)C(C)C)cc1 [Example 60] | 98 | 97.3 | 
CCN(CC)CCNC(=O)c1ccc(OC/C=C(\C)CC/C=C(\C)CCC=C(C)C)cc1 [Example 6] | 52 | 97.9 | 
CCN(CC)CCNC(=O)c1cc(OC)c(OC)c(OCC=C(C)C)c1 [Example 40] | 79 |  | -2
CC(C)N(CCNC(=O)c1ccc(NC(C)(C)C)cc1)C(C)C [Example 68] | 79 |  | -58
CCN(CC)CCNC(=O)c1cc(OCC=C(C)C)c(OCC=C(C)C)c(OCC=C(C)C)c1 [Example 23] | 81 |  | 
CC(C)N(CCNC(=O)c1cc(C(C)(C)C)cc(C(C)(C)C)c1)C(C)C [Example 65] | 86 |  | 5
CCN(CC)CCNC(=O)c1ccc(OC/C=C(\C)CCC=C(C)C)c(OC/C=C(\C)CCC=C(C)C)c1 [Example 18] | 37 |  | 

SMILES | WIS: ulcer formation inhibitory rate [1] [%] | inhibition at 10 µM [2] [%] | cytotoxicity at 4 h, 100 µM [3] [%]
CC(C)=CCOc1cccnc1C(=O)NCCN(C(C)C)C(C)C [Example 55] | 97 |  | 20
CC(C)=CCC/C(C)=C/COc1ccc(C(=O)NCCN(C)CC(C)C)cc1 [Example 10] | 65 |  | 
CC(C)=CCC/C(C)=C/COc1ccc(C(=O)NCCN(C(C)C)C(C)C)cc1CC(C)C [Example 34] | 48 | 100 | 
CCN(CC)CCNC(=O)c1cccc(OC/C=C(\C)CCC=C(C)C)c1 [Example 1] | 72 |  | 
COc1cc(C(=O)NCCN(C)C)cc(OC)c1OC/C=C(\C)CCC=C(C)C [Example 43] | 88 |  | 1
CC(C)=CCOc1cccnc1C(=O)NCCN(C)C [Example 53] | 67 |  | 1
CC(C)=CCC/C(C)=C/CNc1ccc(C(=O)NCCN(C(C)C)C(C)C)cc1 [Example 26] | 49 | 100 | 
CC(C)=CCOc1ncccc1C(=O)NCCN(C)C [Example 45] | 41 |  | 
CC(C)=CCC/C(C)=C/COc1ccc(C(=O)NCCN(C)C(C)(C)C)cc1 [Example 12] | 34 | 99.9 | 
CC(C)N(CCNC(=O)c1ccc2c(c1)OCO2)C(C)C [Example 58] | 96 |  | 29
CC(C)=CCOc1cc(C(=O)NCCN(C)C)cc(OCC=C(C)C)c1OCC=C(C)C [Example 24] | 70 |  | 
CC(C)=CCOc1ccc(C(=O)NCCN(C)C)cn1 [Example 44] | 30 |  | 
CCN(CC)CCNC(=O)c1cc(OC/C=C(\C)CCC=C(C)C)cc(OC/C=C(\C)CCC=C(C)C)c1 [Example 19] | 69 |  | 
CCCCCCCCc1ccc(C(=O)NCCN(C(C)C)C(C)C)cc1 [Example 63] | 49 | 101 | 
CCN(CC)CCNC(=O)c1cccnc1OC/C=C(\C)CCC=C(C)C [Example 52] | 57 | 101 | 
